This is an account of results in ChEMBL document CHEMBL1201862, “PubChem BioAssay data set” (2004).

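Interpolation was linear, between the two tested concentrations surrounding the appropriate level; five concentrations were tested over 48 hours in 96-well plates. Abbreviation: GI50, concentration required for 50% inhibition of growth.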 Calls of active or inactive are those of the source. Rule as the data show it: active = GI50 up to about 1.1 µM and inactive = higher.

Test systems include HL-60; SF-539; SF-295; COLO 205; HCC 2998; RXF 393; A549; SW-620; HT-29; EKVX; HCT-15; SNB-78; SK-MEL-5; ACHN; NCI-H23; K562; M14; MDA-MB-435; PC-3.
What all share (experiment): NCI tumour cell line growth inhibition, 48 h

`Nc1nc(N)c2ncn(CCOC(c3ccccc3)P(=O)(O)O)c2n1` (stereo not drawn): the GI50 with HL-60, in the assay with SF-539, with SF-295, in the assay with COLO 205, with HCC 2998 and in the assay with RXF 393 was > 100 µM (inactive) in each case. The GI50 with A549 is > 100 µM (inactive); in the assay with SW-620 it was > 100 µM (inactive); in the assay with HT-29, > 100 µM (inactive); in the assay on EKVX, > 100 µM (inactive); in the assay on HCT-15, greater than 100 µM; in the assay with SNB-78, > 100 µM (inactive). Further, the GI50 in the assay on SK-MEL-5, with ACHN and with NCI-H23 was > 100 µM (inactive) throughout.
For `CC1(C)C(=O)C(C)(C)C1=NNC(N)=S`, the GI50 with HL-60, in the assay with SF-539, in the assay with SF-295, in the assay with COLO 205, in the assay with HCC 2998 and with RXF 393 was > 100 µM (inactive) throughout. The GI50 in the assay on A549 was > 100 µM (inactive); in the assay with SW-620, > 100 µM (inactive); in the assay with HT-29, > 100 µM (inactive); with HCT-15 it was greater than 100 µM; with SNB-78 it was > 100 µM (inactive); in the assay with SK-MEL-5, > 100 µM (inactive). In addition, the GI50 in the assay on K562, in the assay on ACHN, in the assay on NCI-H23 and in the assay with M14 was > 100 µM (inactive) each time.
As for `COc1cc(C(=O)CC2(O)C(=O)Nc3c(Cl)cc(Cl)cc32)ccc1O` (stereo not drawn), the GI50 in the assay with HL-60 was 36.2 µM (inactive); in the assay on SF-295 it was 69.2 µM (inactive); with COLO 205, 28.7 µM (inactive); in the assay with HCC 2998 it was 31.5 µM (inactive); in the assay with RXF 393 it was 27.5 µM (inactive); with A549 it was 55 µM (inactive). Also, the GI50 with SW-620 is 71.6 µM (inactive); in the assay with HT-29, 29.4 µM (inactive); in the assay on EKVX, 94 µM (inactive); in the assay with HCT-15, 64 µM; with SNB-78, 87.9 µM (inactive); in the assay with SK-MEL-5, 27.6 µM (inactive). The GI50 in the assay on K562 was 35.5 µM (inactive); in the assay on ACHN, 57.1 µM (inactive); with NCI-H23, 59.2 µM (inactive); in the assay on M14, 66.7 µM (inactive).
With `CC(=O)CCn1[nH]c(=O)c(Cl)c(Cl)c1=O`, the GI50 in the assay on HL-60, in the assay with SF-539, with SF-295, with HCC 2998, in the assay with RXF 393 and with A549 was > 100 µM (inactive) in each case. Besides, the GI50 is 15 µM (inactive) with SW-620; > 100 µM (inactive) in the assay with HT-29; > 100 µM (inactive) in the assay with EKVX; greater than 100 µM in the assay with HCT-15; > 100 µM (inactive) with SNB-78; > 100 µM (inactive) in the assay with SK-MEL-5. The GI50 in the assay with K562, in the assay on ACHN, in the assay on NCI-H23 and in the assay on M14 was > 100 µM (inactive) in each case.
Turning to `COCOCC/C=C/C=O`, the GI50 in the assay with HL-60, in the assay with SF-539, with SF-295, in the assay with COLO 205, with HCC 2998 and in the assay with RXF 393 was > 100 µM (inactive) throughout. The GI50 in the assay on A549 is > 100 µM (inactive); in the assay on SW-620, > 100 µM (inactive); in the assay on HT-29 it was > 100 µM (inactive); with EKVX, > 100 µM (inactive); with HCT-15, greater than 100 µM; with SNB-78 it was > 100 µM (inactive). Further, the GI50 in the assay on SK-MEL-5, in the assay with K562, in the assay with ACHN, in the assay on NCI-H23 and in the assay with M14 was > 100 µM (inactive) each time.
For the molecule `CCOC(=O)C(=O)Nc1c(C)cccc1CC`, the GI50 with HL-60, with SF-539, with SF-295, in the assay with HCC 2998, in the assay on RXF 393 and in the assay on A549 was > 100 µM (inactive) in each case. Moreover, the GI50 in the assay with SW-620, in the assay with HT-29, in the assay with EKVX, in the assay with SNB-78, in the assay with SK-MEL-5 and with K562 was > 100 µM (inactive) each time. In addition, the GI50 with ACHN, with NCI-H23 and in the assay with M14 was > 100 µM (inactive) each time.
As to `Cc1cc(N(CCC#N)CCC#N)ccc1/N=N/c1ccc([N+](=O)[O-])cc1`, the GI50 with HL-60 was > 100 µM (inactive); with SF-539, > 100 µM (inactive); in the assay on SF-295, 56.4 µM (inactive); in the assay with COLO 205 it was > 100 µM (inactive); in the assay on HCC 2998, > 100 µM (inactive); in the assay on RXF 393, 32.5 µM (inactive). Further, the GI50 with A549 was > 100 µM (inactive); in the assay with SW-620 it was > 10 µM (inactive); in the assay with HT-29, > 100 µM (inactive); with EKVX it was > 100 µM (inactive); in the assay on HCT-15, 39.4 µM; in the assay on SNB-78, 34.1 µM (inactive). The GI50 is > 10 µM (inactive) in the assay on SK-MEL-5; > 100 µM (inactive) with K562; 95.9 µM (inactive) in the assay with ACHN; 43 µM (inactive) in the assay with NCI-H23; > 100 µM (inactive) with M14.
In the case of `CC(=O)NC(CCCN(Cc1ccccc1)C(=O)N(CCCl)N=O)C(=O)NCc1ccccc1` (stereo not drawn), the GI50 is 8.71 µM (inactive) in the assay on HL-60; 2.54 µM (inactive) in the assay on SF-539; 6.19 µM (inactive) with SF-295; > 64.7 µM (inactive) with COLO 205; 64.6 µM (inactive) in the assay on HCC 2998; 21.8 µM (inactive) in the assay with RXF 393. Moreover, the GI50 in the assay on A549 was 16.1 µM (inactive); in the assay with SW-620 it was 16.2 µM (inactive); with HT-29, > 57.5 µM (inactive); in the assay with EKVX it was > 72.9 µM (inactive); with HCT-15, greater than 81.8 µM; in the assay on SNB-78, 54.1 µM (inactive). The GI50 is 27.5 µM (inactive) in the assay with SK-MEL-5; 68.4 µM (inactive) in the assay on K562; 10.8 µM (inactive) in the assay with ACHN; 27 µM (inactive) with NCI-H23; 42.7 µM (inactive) with M14.
For `CC(=O)[C@]1(O)Cc2c(O)c3c(c(O)c2[C@@H](OC2CC(N)C(O)C(C)O2)C1)C(=O)c1c(OCc2ccccc2)cccc1C3=O` (stereo partly drawn), the GI50 with HL-60 was 0.132 µM (active); in the assay with SF-539 it was 1.46 µM (inactive); with SF-295, 1.23 µM (inactive); in the assay with COLO 205, 1.16 µM (inactive); in the assay on HCC 2998 it was 1.34 µM (inactive); in the assay on RXF 393, 2.63 µM (inactive). In addition, the GI50 in the assay on A549 was 0.75 µM (active); in the assay on SW-620, 0.544 µM (active); in the assay on HT-29 it was 1.51 µM (inactive); in the assay on MDA-MB-435, 1.43 µM (inactive); with PC-3 it was 1.26 µM (inactive); with EKVX, 3.05 µM (inactive). The GI50 in the assay with HCT-15 is 1.39 µM; in the assay on SNB-78, 4.38 µM (inactive); in the assay with SK-MEL-5, 1.71 µM (inactive); in the assay with K562, 0.738 µM (active); in the assay with ACHN, 0.946 µM (active); in the assay with NCI-H23, 1.64 µM (inactive). The GI50 in the assay on M14 is 1.49 µM (inactive).
